{"source": "patent US20090087894A1", "about": "“Method for improving enzymatic activity of glycosyltransferases” (Japan Tobacco Inc., priority 2004, published 2009)", "molecules": {"B1": {"name": "FAJ-N0C0: recombinant full-length α2,3-sialyltransferase of Vibrio sp. JT-FAJ-16 expressed in E. coli (protein)", "chain": "MKNIITKRMLIILSSLFTIIGCNNDNSTTTNNNAIEIYVDRATLPTIQQMTKIVSQKTSNKKLISWSRYPITDKSLLKKINAEFFKEQFELTESLKNIILSENIDNLIIHGNTLWSIDVVDIIKEVNLLGKNIPIELHFYDDGSAEYVRIYEFSKLPESEQKYKTSLSKNNIKFSIDGTDSFKNTIENIYGFSQLYPTTYHMLRADIFDTTLKINPLRELLSNNIKQMKWDYFKDFNYKQKDIFYSLTNFNPKEIQEDFNKNSNKNFIFIGSNSATATAEEQINIISEAKKENSSIITNSISDYDLFFKGHPSATFNEQIINAHDMIEINNKIPFEALIMTGILPDAVGGMGSSVFFSIPKEVKNKFVFYKSGTDIENNSLIQVMLKLNLINRDNIKLISDI", "modifications": "OTHER INFORMATION: /gene=“FAJ16-23ST” /product=“beta-galactoside-alpha2,3-sialyltransferase”", "notes": "recombinant full-length α2,3-sialyltransferase of Vibrio sp; JT-FAJ-16 expressed in E. coli"}, "B2": {"name": "467-N2C0: recombinant JT-ISH-467 α2,3-sialyltransferase lacking the signal peptide region, expressed in E. coli (protein)", "chain": "MFVFCKKIFFLIFISLMILGGCNSDSKHNNSDGNITKNKTIEVYVDRATLPTIQQMTQIINENSNNKKLISWSRYPINDETLLESINGSFFKNRPELIKSLDSMILTNEIKKVIINGNTLWAVDVVNIIKSIEALGKKTEIELNFYDDGSAEYVRLYDFSRLPESEQEYKISLSKDNIQSSINGTQPFDNSIENIYGFSQLYPTTYHMLRADIFETNLPLTSLKRVISNNIKQMKWDYFTTFNSQQKNKFYNFTGFNPEKIKEQYKASPHENFIFIGTNSGTATAEQQIDILTEAKKPDSPIITNSIQGLDLFFKGHPSATYNQQIIDAHNMIEIYNKIPFEALIMTDALPDAVGGMGSSVFFSLPNTVENKFIFYKSDTDIENNALIQVMIELNIVNRNDVKLISDLQ", "modifications": "OTHER INFORMATION: /gene=“467-23ST” /product=“beta-galactoside-alpha2,3-sialyltransferase”", "notes": "recombinant JT-ISH-467 α2,3-sialyltransferase lacking the signal peptide region, expressed in E. coli"}, "B3": {"name": "467-N0C0: recombinant full-length α2,3-sialyltransferase of Photobacterium phosphoreum JT-ISH-467 expressed in E. coli (protein)", "chain": "B2 chain", "modifications": "OTHER INFORMATION: /gene=“467-23ST” /product=“beta-galactoside-alpha2,3-sialyltransferase”", "notes": "recombinant full-length α2,3-sialyltransferase of Photobacterium phosphoreum JT-ISH-467 expressed in E. coli"}, "B4": {"name": "224-N1C0: recombinant JT-ISH-224 α2,3-sialyltransferase lacking the signal peptide region, expressed in E. coli (protein)", "chain": "MLVFCKKMFFSVFISLMILGGCNSDSNHNNSDGNITKNKTIEVYVDRATLPTIQQMTQIINENSNNKKLISWSRYPINDEELLESINGSFFKNNSELIKSLDSMILTNDIKKVIINGNTLWAADVVNIIKSIEAFGKKTEIELNFYDDGSAEYVRLYDFSKLPESEQEYKISLSKDNILSSINGTQPFENVVENIYGFSQLYPTTYHMLRADIFETNLPLRSLKGVLSNNIKQMKWDYFKTFNSQQKDKFYNFTGFNPDEIMEQYKASPNKNFIFVGTNSGTATAEQQIDILTEAKNPNSPIITKSIQGFDLFFKGHPSATYNKQIIDAHNMIEIYNKIPFEALIMTDALPDAVGGMGSSVFFSLPNTVENKFIFYKSDTDIENNALIQVMIELNIVNRNDVKLISDLQ", "modifications": "OTHER INFORMATION: /gene=“224-23ST” /product=“beta-galactoside-alpha-2,3-sialyltransferase”", "notes": "recombinant JT-ISH-224 α2,3-sialyltransferase lacking the signal peptide region, expressed in E. coli"}}, "key": {"[1]": {"system": "glycosyltransferase (crude α2,6-sialyltransferase) of P. damsela ATCC33539", "test": "Effect of NaCl on activity of crude α2,6-sialyltransferase from P. damselae ATCC33539", "type": "biochemical, Photobacterium damselae", "method": "(§1) ATCC33539T and ATCC35083, which were strains belonging to Photobacterium damselae but different from JT0160, were cultured and the resulting cells were used to prepare crude enzyme solutions according to the procedure for preparing a crude enzyme solution of P. damselae JT0160 (Purification and characterization of a Marine bacterial β-Galactoside α2,6-Sialyltransferase from Photobacterium damselae JT0160 J. Biochem. 120, 104-110, 1996). These crude enzymes were used in the following experiment.\n(§2) The enzyme reaction was accomplished in 20 μl reaction solution containing CMP-^14C-NeuAc as a glycosyl donor substrate (50.066 nmol, 25000 cpm), lactose as a glycosyl acceptor substrate (1 mmol), glycosyltransferase derived from various strains (1 mU or less) and NaCl at a concentration of 0.5 M (30° C., 1 minute). After completion of the enzymatic reaction, the radioactivity of NeuAc which was transferred to lactose under the respective conditions was measured to calculate the enzyme activity, thereby studying the effect of NaCl on the enzyme activity in each test range. More specifically, after completion of the reaction, each reaction solution was supplemented with 1.98 ml of 5 mM phosphate buffer (pH 6.8) and applied to a AG1−×2Resin (PO4^3− form, 0.2×2 cm) column. […] The eluate (0 to 2 ml) from this column was measured for its radioactivity."}, "[2]": {"system": "glycosyltransferase (crude α2,6-sialyltransferase) of P. damsela ATCC35083", "test": "Effect of NaCl on activity of crude α2,6-sialyltransferase from P. damselae ATCC35083", "type": "biochemical, Photobacterium damselae", "method": "as §1, §2"}, "[3]": {"target": "T1, deletion mutant of recombinant α2,6-sialyltransferase; N2C1, derived from P. damselae JT0160 (Photobacterium damselae, UniProt O66375)", "T1 construct": "lacks the N-terminal (Met) 107 amino acid residues and the C-terminal 176 amino acid residues; made in house; host or cells: E. coli, crude enzyme solution", "T1 sequence (O66375 entry or part of it, stated change not applied)": "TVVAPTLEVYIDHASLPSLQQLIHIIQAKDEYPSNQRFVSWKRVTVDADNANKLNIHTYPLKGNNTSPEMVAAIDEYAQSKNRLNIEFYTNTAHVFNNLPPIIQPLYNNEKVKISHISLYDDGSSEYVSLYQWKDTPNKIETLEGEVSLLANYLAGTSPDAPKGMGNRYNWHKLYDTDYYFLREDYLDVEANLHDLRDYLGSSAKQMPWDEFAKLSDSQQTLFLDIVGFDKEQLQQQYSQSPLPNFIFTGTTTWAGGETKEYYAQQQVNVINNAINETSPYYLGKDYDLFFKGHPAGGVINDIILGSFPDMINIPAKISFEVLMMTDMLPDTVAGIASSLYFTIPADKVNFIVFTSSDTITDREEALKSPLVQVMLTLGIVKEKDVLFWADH", "test": "Effect of NaCl on enzyme activity of deletion mutant of recombinant α2,6-sialyltransferase N2C1", "type": "biochemical", "details": "0.2 to 1.5 M NaCl in the reaction solution; FIG. 4", "method": "The transformed E. coli cells were cultured at 30° C. at 180 rpm for 12 hours in L Broth (containing ampicillin at a final concentration of 0.2 mg/ml and IPTG at a final concentration of 1 mM), followed by centrifugation to collect the cells. The collected cells were suspended in 20 mM sodium cacodyrate buffer (pH 5.0) and then ultrasonicated at 4° C. to homogenize the cells, thereby preparing a crude enzyme solution containing a sialyltransferase protein from the N2C1 gene. […] This N2C1 gene-derived sialyltransferase protein was used in the following experiment.\nThe enzyme reaction was accomplished in 20 μl reaction solution containing CMP-^14C-NeuAc as a glycosyl donor substrate (50.066 nmol, 25000 cpm), lactose as a glycosyl acceptor substrate (1 mmol), N2C1 (0.5 to 1.5 mU) and NaCl at a concentration varying from 0 to 2.5 M (30° C., 1 minute). After completion of the enzyme reaction, the radioactivity of NeuAc which was transferred to lactose under the respective conditions was measured to calculate the enzyme activity, thereby studying the effect of NaCl on the enzyme activity in each test range.\nMore specifically, after completion of the reaction, each reaction solution was supplemented with 1.98 ml of 5 mM phosphate buffer (pH 6.8) and applied to a AG1−×2Resin (PO43-form, 0.2×2 cm) column. […] The eluate (0 to 2 ml) from this column was measured for its radioactivity."}, "[4]": {"test": "Confirmation of α2,3-sialyltransferase activity with pyridylaminated lactose as glycosyl acceptor, HPLC", "type": "biochemical", "details": "pyridylaminated lactose and CMP-sialic acid, 25° C.", "from_the_text": "Determination of the binding mode of sialic acid was accomplished by using a pyridylaminated sugar chain. The resulting enzyme was used to carry out an enzymatic reaction in the presence of a pyridylaminated sugar chain as a glycosyl acceptor substrate. The pyridylaminated sugar chain used for analysis was pyridylaminated lactose (Galβ1, 4Glc-PA, PA-Sugar Chain 026, Takara Bio Inc., Japan). As a standard, pyridylaminated α2,3sialyllactose (NeuAcα2,3Galβ1, 4Glc-PA, PA-Sugar Chain 029, Takara Bio Inc., Japan) was used. The glycosyl acceptor substrate, CMP-NeuAc and the enzyme were dissolved at 2.0 mM, 5.7 μM and about 20 mU/ml, respectively, in 25 μl of 20 mM cacodylate buffer (pH 6.0) or Bis-Tris buffer (pH 6.0), and then reacted at 25° C. for 3 to 18 hours. After completion of the reaction, the reaction solution was treated at 100° C. for 2 minutes to deactivate the enzyme, followed by HPLC to analyze the reaction product.\nThe HPLC system used was, Shimadzu LC10A (Shimadzu Corporation, Japan) and the analytical column used was Takara PALPAK Type R (Takara Bio Inc., Japan). The column which had been equilibrated with 100 mM acetate-triethylamine (pH 5.0) containing 0.15% N-butanol was injected with the reaction solution diluted with Eluent A (100 mM acetate-triethylamine, pH 5.0). For elution of the pyridylaminated sugar chain, Eluent A (100 mM acetate-triethylamine, pH 5.0) and Eluent B (100 mM acetate-triethylamine containing 0.5% n-butanol, pH 5.0) were used to successively elute the pyridylaminated sugar chain with a linear gradient of 30% to 100% Eluent B (0 to 35 minutes) and then 100% Eluent B (35 to 50 minutes). The analysis was performed under the following conditions: flow rate: 1 ml/min, column temperature: 40° C., detection: fluorescence (Ex: 320 nm, Em: 400 nm).\nAs in the case of Reference Example 1-1, pyridylaminated lactose was used as a glycosyl acceptor to carry out the enzyme reaction. After completion of the reaction, the reaction solution was thermally treated at 95° C. for 5 minutes to deactivate the enzyme, followed by HPLC analysis. It should be noted that the enzyme reaction was accomplished at 25° C. for 6 hours using pyridylaminated lactose and CMP-sialic acid dissolved at 2.0 μM and 5.7 μM, respectively, in 25 μl of 20 mM cacodylate buffer (pH 6.0) (Reaction 1). On the other hand, a control experiment (Reaction 2) was carried out using a reaction solution free from CMP-sialic acid. Further, to clarify the retention time of standards, the crude enzyme solution was deactivated by thermal treatment (95° C., 5 minutes) and tested in the presence of pyridylaminated lactose and pyridylaminated α2,3-sialyllactose."}}}
{"molecule": "[Cl-].[Na+]", "note": "[NaCl]", "values": [{"measurement": "Radioactivity", "setting": "[1]; +NaCl, 0.5 M, 30° C., 1 minute", "value": 11071}, {"measurement": "+NaCl/−NaCl", "setting": "[1]; NaCl 0.5 M", "value": 1.2}, {"measurement": "Radioactivity", "setting": "[2]; +NaCl, 0.5 M, 30° C., 1 minute", "value": 9733}, {"measurement": "+NaCl/−NaCl", "setting": "[2]; NaCl 0.5 M", "value": 1.3}, {"measurement": "enzyme activity compared to the absence of NaCl", "setting": "[3]", "value": "activated"}]}
{"molecule": "B1", "values": [{"measurement": "α2,3-sialyltransferase activity (formation of pyridylaminated α2,3-sialyllactose)", "setting": "[4]", "value": "a peak of pyridylaminated α2,3-sialyllactose was detected"}]}
{"molecule": "B2", "values": [{"measurement": "α2,3-sialyltransferase activity (formation of pyridylaminated α2,3-sialyllactose)", "setting": "[4]", "value": "had α2,3-sialyltransferase activity"}]}
{"molecule": "B3", "values": [{"measurement": "α2,3-sialyltransferase activity (formation of pyridylaminated α2,3-sialyllactose)", "setting": "[4]", "value": "found to have α2,3-sialyltransferase activity"}]}
{"molecule": "B4", "values": [{"measurement": "α2,3-sialyltransferase activity (formation of pyridylaminated α2,3-sialyllactose)", "setting": "[4]", "value": "a peak of pyridylaminated α2,3-sialyllactose was detected"}]}
